Data reported in US12054744B2, “NK cells exhibiting an adaptive phenotype and methods for preparing and for using” (Regents of the University of Minnesota, priority 2015, dated 2024).

How the values were obtained:
Format in all cases: cell-based, human
[1] = tested on: CD155 on monocytes; test: ROS induction in monocytes by H2O2, staining for ROS, CD112 and CD155; details: H2O2 250 μM
Description: (§1) MDSCs were induced from healthy blood donor PBMC with IL-6 (10 ng/mL) and GM-CSF (10 ng/mL) for 7 days, bead-depleted for HLA-DR, and enriched for CD33. FIG. 13A. MDSCs and freshly isolated monocytes were stained for the antigens shown. One representative example from independent experiments is shown. FIG. 13B. Induced MDSCs were stained for CD155 and analyzed by flow cytometry following overnight treatment with superoxide dismutase (SOD, 200 IU/mL), arginase inhibitor (a-ARG, arginase inhibitor N(ω)-hydroxy-nor-L-arginine, 500 μM), ROS scavenger (Catalase, 200 international units per milliliter (IU/mL)), blocking antibodies against TGF-β (10 μg/mL), iNOS inhibitor (aiNOS, NG-monomethyl-1-arginine, 500 micromolar (μM)), or left untreated. Pooled (n=4) data is shown as mean±SEM, and statistical analysis were done using the Student's t-test. FIG. 13C. Unstimulated monocytes and MDSCs were stained for total ROS and analyzed by flow cytometry. FIG. 13D. Unstimulated or H2O2 (250 μM) monocytes and unstimulated MDSCs were stained for total ROS, CD112, and CD155 and analyzed by flow cytometry. Cells double positive for ROS and CD112 or CD155 are shown. One representative donor of six is shown. One representative isotype control is shown for all groups for simplicity as individual controls were similar between conditions. […]

[2] = tested on: PLZF expression in cord blood-derived CD56^dim NK cells; test: Intracellular PLZF staining of cord blood-derived CD56^dim NK cells after 14 days in culture; details: high-dose IL-15, IL-21 where added
Description: FIG. 6A. FACS plots of intracellular PLZF expression in cord blood-derived CD56^dim NK cells from a representative donor after 14 days in the indicated culture conditions. FIG. 6B. Cumulative data showing the percentage of PLZF″ NK cells after 14 days in each culture condition from 6 donors. Two independent experiments were performed. Error bars represent SEM.
Mononuclear cells were isolated from whole cord blood by density gradient centrifugation. T cells and B cells were depleted by positive magnetic selection using anti-CD3 and anti-CD19 microbeads, respectively. CD3/CD19-depleted cells were then added to irradiated OP9 cells at a concentration of 5×10^5 cells/well and cultured for 14 days in RPMI media+10% FBS supplemented with either 1 ng/mL IL-15 or 10 ng/mL IL-15 with or without 50 ng/mL IL-21.
Cord blood-derived NK cells were analyzed before culture and after 7 and 14 days of culture by fluorescence activated cell sorting (FACS) using the following extracellular and intracellular antibodies: BV785-conjugated anti-CD3 (BioLegend, San Diego, CA), PE-Cy7-conjugated anti-CD56 (BioLegend, San Diego, CA), BV605-conjugated anti-CD57 (BioLegend, San Diego, CA), APC-conjugated SYK (eBioscience, San Diego, CA), and PE-conjugated anti-PLZF (BD Biosciences, San Jose, CA).
Transcriptional silencing of the transcription factor promyelocytic leukemia zinc finger (PLZF) is a hallmark of adaptive NK cells that expand in response to CMV infection (Schlums et al. Immunity. 2015; 42(3):443-456). Intracellular staining for PLZF was performed in NK cells from freshly isolated mononuclear cells and from cells that were cultured for 14 days in vitro. Freshly isolated CD56^dimSYK^− NK cells from cord blood were predominantly PLZF-positive (99.3%±0.10). […] Therefore, IL-21 drives down PLZF expression in CD56^dimSYK^− NK cells, causing these cells to acquire adaptive characteristics (FIG. 6).

[3] = tested on: K562; test: Chromium (51Cr) release assay against K562; details: anti-TIGIT 10 ug/mL or catalase 200 IU/mL
Description: Purified NK cells from healthy blood donors were co-cultured with autologous MDSCs or freshly isolated monocytes at a 2:1 ratio in the presence of IL-15 (10 ng/mL) and in the presence or absence of blocking antibodies against TIGIT (10 μg/mL), or catalase (200 IU/mL) for 5 days. Cells were then washed, rested for 4 hours, stimulated for 10 and 30 min with anti-CD16, and stained for pZAP/Syk or pERK1/2 respectively. Representative (FIG. 14A) or cumulative (FIG. 14B) data are shown from 3 independent experiments as mean±SEM. Statistical analysis was done using the Student's t-test. FIG. 14C. […]
Given the strong suppressive effect of TIGIT engagement on conventional NK cell function and proliferation, the CD16 induced signaling interaction with TIGIT in NK cells co-cultured with MDSC was analyzed. […]
Following 5 days of co-culture with monocytes or MDSCs in the presence or absence of blocking antibodies against TIGIT (10 ug/mL) or ROS scavenger catalase (200 IU/mL), NK cell cytotoxicity was analyzed by chromium (51 Cr) release assays (4 hours) against K562 (ATCC, Manassas, VA) cells at a 5:1-2.5:1 effector:target ratios. 51 Cr release was measured by a γ scintillation counter (Perkin Elmer, Waltham, MA), and specific target lysis was determined.

[4] = tested on: CD155 on MDSCs; test: CD155 staining of induced MDSCs after overnight treatment with inhibitors of MDSC pathways; details: catalase 200 IU/mL overnight
Description: as §1, with “FIG. 13C.” left out, “FIG. 13D.” left out, “cytometry.” for “cytometry. Cells double positive for ROS and CD112 or CD155 are shown. One representative donor of six is shown. One representative isotype control is shown for all groups for simplicity as individual controls were similar between conditions.”
Purified NK cells or MDS PBMC (FIG. 17) cultured with monocytes or MDSCs for different time points and with different stimuli were resuspended in staining buffer (PBS containing 0.5% human AB serum) and stained with fluorochrome-conjugated antibodies (Table IV). […] All cells were acquired by LSRII and analyzed by FlowJo. […]

[5] = tested on: pZAP70/Syk and pERK1/2; test: Phosflow of pZAP70/Syk and pERK1/2 in NK cells co-cultured with MDSCs; details: NK cells co-cultured with MDSCs 5 days; anti-TIGIT 10 ug/mL or catalase 200 IU/mL; anti-CD16 stimulation
Description: Purified NK cells from healthy blood donors were co-cultured with autologous MDSCs or freshly isolated monocytes at a 2:1 ratio in the presence of IL-15 (10 ng/mL) and in the presence or absence of blocking antibodies against TIGIT (10 μg/mL), or catalase (200 IU/mL) for 5 days. Cells were then washed, rested for 4 hours, stimulated for 10 and 30 min with anti-CD16, and stained for pZAP/Syk or pERK1/2 respectively. Representative (FIG. 14A) or cumulative (FIG. 14B) data are shown from 3 independent experiments as mean±SEM. Statistical analysis was done using the Student's t-test. FIG. 14C. NK cells from monocyte and MDSC co-cultures in the presence or absence of anti-TIGIT or catalase were washed and incubated with 51 Cr-labeled K562 for 4 hours to assess NK cell cytotoxicity. Representative data from 3 independent experiments is shown as mean±SEM.
Given the strong suppressive effect of TIGIT engagement on conventional NK cell function and proliferation, the CD16 induced signaling interaction with TIGIT in NK cells co-cultured with MDSC was analyzed. […] To investigate whether blocking TIGIT or ROS could recover the function of NK cells cultured with MDSCs in cytotoxicity assays, NK cells were cultured with either monocytes or MDSCs were pre-treated with TIGIT blockade or catalase, washed, and then incubated with 51 Cr-labeled K562 cells. […]

OO [H2O2]
expression of CD155 in ROS^+ monocytes [1]: induce the expression of CD155

IL-21: cytokine added at 50 ng/mL to IL-15 cultures
decrease in PLZF expression (percentage of PLZF-negative NK cells) ([2]; CD56^dimCD57^+SYK^+ NK cells): 12.13%±2.43 | decrease in PLZF expression (percentage of PLZF-negative NK cells) ([2]; CD56^dimCD57^+SYK^− NK cells): 66.0%±8.86 | decrease in PLZF expression (percentage of PLZF-negative NK cells) ([2]; CD56^dimCD57^−SYK^+ NK cells): 14.92%±1.80 | decrease in PLZF expression (percentage of PLZF-negative NK cells) ([2]; CD56^dimCD57^−SYK^− NK cells): 35.82%±7.02

B1: catalase: ROS scavenger catalase (Sigma-Aldrich), 200 IU/mL (protein, UniProt P00432 2-527, looked up)
Catalase: ADNRDPASDQMKHWKEQRAAQKPDVLTTGGGNPVGDKLNSLTVGPRGPLLVQDVVFTDEMAHFDRERIPERVVHAKGAGAFGYFEVTHDITRYSKAKVFEHIGKRTPIAVRFSTVAGESGSADTVRDPRGFAVKFYTEDGNWDLVGNNTPIFFIRDALLFPSFIHSQKRNPQTHLKDPDMVWDFWSLRPESLHQVSFLFSDRGIPDGHRHMNGYGSHTFKLVNANGEAVYCKFHYKTDQGIKNLSVEDAARLAHEDPDYGLRDLFNAIATGNYPSWTLYIQVMTFSEAEIFPFNPFDLTKVWPHGDYPLIPVGKLVLNRNPVNYFAEVEQLAFDPSNMPPGIEPSPDKMLQGRLFAYPDTHRHRLGPNYLQIPVNCPYRARVANYQRDGPMCMMDNQGGAPNYYPNSFSAPEHQPSALEHRTHFSGDVQRFNSANDDNVTQVRTFYLKVLNEEQRKRLCENIAGHLKDAQLFIQKKAVKNFSDVHPEYGSRIQALLDKYNEEKPKNAVHTYVQHGSHLSAREKANL
NK cell cytotoxicity against K562, NK cells cultured alone [3]: Neither anti-TIGIT nor catalase had any effect | NK cell cytotoxicity against K562 after co-culture with MDSCs ([3]; 5 days, 4 hours 51Cr release): completely reversed the suppressive effect | decrease in the expression of CD155 on MDSCs [4]: 55%±23 | phosphorylation of ZAP70/Syk and ERK1/2 [5]: increased the phosphorylation
